Like-named read-outs stand apart in the source and are kept apart here. Where no end group is shown, it is not given here.

The target of assay [1] is T1, human ATAD2B BRD-containing protein (residues 953–1085) (Homo sapiens, UniProt Q9ULI0).
T1 sequence (Q9ULI0 953-1085): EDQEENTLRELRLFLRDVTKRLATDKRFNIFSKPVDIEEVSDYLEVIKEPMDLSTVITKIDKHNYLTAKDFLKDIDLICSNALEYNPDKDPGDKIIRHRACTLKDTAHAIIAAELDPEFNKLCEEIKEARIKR
The settings on record: read-out: KD for ATAD2B; ITC; cited from earlier work.

In assay [2] the target is T1, human ATAD2B BRD-containing protein (residues 953–1085). As to the kind of experiment: ITC of histone peptides with the ATAD2B BRD.
The target in assay [3] is T2, Human ATAD2 BRD-containing protein (residues 966–1112) (Homo sapiens, UniProt Q6PL18).
T2 sequence (Q6PL18 966-1112): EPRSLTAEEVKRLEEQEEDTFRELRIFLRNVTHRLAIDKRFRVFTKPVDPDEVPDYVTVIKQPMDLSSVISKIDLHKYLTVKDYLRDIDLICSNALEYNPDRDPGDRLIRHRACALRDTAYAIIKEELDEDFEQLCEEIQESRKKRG
The settings on record: read-out: KD for ATAD2; ITC; cited from earlier work.

In a further assay the test system is ATAD2 BRD. The settings on record: induces dimerization of the ATAD2 BRD to block binding to acetylated histones; cited from earlier work.

Regarding “H4K5ac (1–15): wild-type histone H4K5ac ligand residues 1–15, values from earlier papers”, the Kd – broadly, the equilibrium constant for the complex coming apart – in assay [1] is 5.2 ± 1 µM.
In turn, “SGRGKTGGK(Ac)ARAKAKSR-NH2 [H2A.XK9ac (1–17)]” yielded a Kd in assay [2] of 90 ± 12.8 µM.
As for SGRGKacQGGKARA [H2AK5ac (1–12)], the Kd in assay [3] was 38.9 ± 5.9 µM; in assay [1], 42.5 ± 2.9 µM.
In the case of `COc1cc(Cl)c(C(=O)N[C@@H](CN[C@H]2CC[C@@H](N)CC2)Cc2ccc(C#N)cc2)cc1-c1ccc(CN[C@H](C)c2ccc(C)cc2)o1` [BAY-850], in the assay with ATAD2 BRD, the IC50 (usually the concentration at which inhibition is half-maximal) was 0.02 µM.

Source of the values: PMC11149620 (Journal of medicinal chemistry, 2024).
